{
  "source": "patent US6057117A",
  "about": "“Identification and use of selective inhibitors of glycogen synthase kinase 3” (Chiron Corporation, priority 1999, dated 2000)",
  "format_in_all_cases": "cell-based",
  "key": {"HepG2 liver cells [1]": {"tested_on": "HepG2 liver cells", "test": "Glucose uptake in stable tissue culture cells", "source_text": "(§1) In these assays measurement of the effectiveness of a given inhibitor is accomplished by the effect of inhibitors on glycogen synthase activity as described in Thomas et al, Anal. Biochem. 25:486-99 (1968), glucose uptake as described in Begun and Ragolia Endocrinology 137: 2441-6 (1996), Claraldi et al, J. Clin. Invest. 96:2820-27 (1995), Hara et al, PNAS 91:7415-19 (1994), Robinson and James, Am. J. Physiol. 263:E383-93(1992), and Sasoaka et al, JBC 270: 10885-92 (1995) and glucose incorporation into glycogen as described in Begun and Ragolia Endocrinology 137: 2441-6 (1996), Sasoaka et al, JBC 270: 10885-92 (1995), and Takata et al, JBC 267:9065-70 (1992).\n(§2) Assays for glucose uptake and glycogen synthesis can be conducted as described for cell-based assays generally. To measure glucose uptake and glycogen synthesis, a variety of stable tissue culture cell lines that respond to insulin stimulation by increasing the synthesis of glycogen and increasing the rate of glucose uptake from the medium can be used. These include HepG2 liver cells, CHO-IR cells, and Hirc cells. Under appropriate conditions the addition of insulin and glucose to HepG2 cells stimulates glycogen synthase activity and this stimulation is potentiated in the presence of the GSK3 inhibitor iodotubercidin."}, "Drosophila cells": {"tested_on": "Drosophila cells", "test": "β-catenin stabilization assay of intracellular GSK3 activity (western blot)", "settings": "added to Drosophila cells; detected on a western blot", "source_text": "Other assays that test functional GSK3 also provide a further test of intracellular GSK3 activity. These assays rely on the ability to observe indirect consequences of GSK3 activity within cells. An example of such an assay involves β-catenin stabilization. Cellular GSK3 activity leads to the destabilization of cytosolic pools of β-catenin in certain types of cell. Consequently, inhibition of GSK3 results in β-catenin stabilization and accumulation, which can be detected on a western blot. […] Similarly, LiCl in the cell culture medium causes an increase in intracellular β-catenin levels as described in Stambolic et al, Cur. Biol. 6(12):1664-8 (1996)."}, "HepG2 liver cells [2]": {"tested_on": "HepG2 liver cells", "test": "Insulin- and glucose-stimulated glycogen synthase activity in stable tissue culture cells", "settings": "insulin and glucose added, in the presence of the inhibitor", "source_text": "as §1, §2"}},
  "data": [
    {"smiles": "Nc1ncnc2c1c(I)cn2[C@@H]1O[C@H](CO)[C@@H](O)[C@H]1O", "note": "[iodotubercidin]", "values": [
      {"measurement": "response of glucose uptake to insulin, glucose and inhibitor", "setting": "HepG2 liver cells [1]", "value": "as much as six fold"},
      {"measurement": "β-catenin accumulation", "setting": "Drosophila cells", "value": "leads to β-catenin accumulation"},
      {"measurement": "stimulation of glycogen synthase activity by insulin and glucose", "setting": "HepG2 liver cells [2]", "value": "potentiated"}
    ]}
  ]
}
